We go through 17 compounds from ChEMBL document CHEMBL1127962, “Investigation of the effects of synthetic, non-cytotoxic immunophilin inhibitors on MDR” (1994).

The test system of one experiment is KB. The experiment in a line: In vitro reversal of multidrug resistance (MDR) in human carcinoma cell line. The experiment is classed as functional.
The target of experiment [1] is Peptidyl-prolyl cis-trans isomerase FKBP1A (Homo sapiens) (UniProt P62942). The experiment in a line: In vitro inhibition of non-cytotoxic immunophilin FK506 binding protein activity.
Chain of Peptidyl-prolyl cis-trans isomerase FKBP1A (Homo sapiens) (P62942 whole entry): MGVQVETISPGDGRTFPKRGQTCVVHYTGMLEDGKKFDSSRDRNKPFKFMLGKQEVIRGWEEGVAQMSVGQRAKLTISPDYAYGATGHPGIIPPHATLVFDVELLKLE

Regarding `C[C@H](/C=C/c1ccc(C(=O)C(=O)N2CCCC2C(=O)N[C@@H](Cc2ccccc2)C(=O)OC(C)(C)C)s1)CO` (some centres undefined), the Activity with KB is greater than 50 µM; in experiment [1], 100 µM.
On the same counts, the results for `COC(=O)[C@H](Cc1ccccc1)NC(=O)[C@@H](NC(=O)[C@H](Cc1ccccc1)NC(=O)C1CCCCN1CC(=O)c1ccc2ccccc2c1)C(C)C` (some centres undefined) are greater than 50 µM and 0.3 µM.
The matching figures for `C[C@H](/C=C/c1ccc(C(=O)C(=O)N2CCCC2C(=O)OC(C)(C)C)s1)CO` (some centres undefined): greater than 50 µM and greater than 100 µM.
The matching figures for `C#C[C@@H](NC(=O)[C@H](Cc1ccccc1)NC(=O)C1CCCCN1CC(=O)c1cccc(OC)c1)C(C)C` (some centres undefined): 11 µM and 5 µM.
Turning to `COc1cccc(C(=O)CN2CCCCC2C(=O)N[C@@H](Cc2ccccc2)C(=O)N[C@@H](CC(C)C)C(=O)OC(C)(C)C)c1` (some centres undefined), the Activity turned out to be 7 µM in the experiment on KB and 6 µM in experiment [1].
The matching figures for `C[C@H](/C=C/c1ccc(C(=O)C(=O)N2CCCC2C(=O)N[C@@H](CC2CCCCC2)C(=O)OC(C)(C)C)s1)CO` (some centres undefined): 13 µM and greater than 100 µM.
As to `CCC(C)C[C@H](NC(=O)C1CCCCN1CC(=O)c1cccc(OC)c1)C(=O)OC(C)(C)C` (some centres undefined), the Activity was greater than 50 µM in the experiment with KB and 8 µM in experiment [1].
On the same counts, the results for `C=CCC(CC(C)C[C@H](C)C[C@H](OC)C1OC(O)(C(=O)C(=O)N2CCCCC2)[C@H](C)C[C@@H]1OC)C(=O)C[C@H](O)[C@@H](C)[C@H](OC(C)=O)C(C)CC1CC[C@@H](O)C(OC)C1` (some centres undefined) are 5 µM and 0.001 µM.
On the same counts, the results for `COC(=O)[C@H](Cc1ccccc1)NC(=O)[C@@H](NC(=O)[C@H](Cc1ccccc1)NC(=O)C1CCCCN1CC(=O)c1cccc(OC)c1)C(C)C` (some centres undefined) are greater than 50 µM and 1 µM.
The matching figures for `COc1cccc(C(=O)CN2CCCCC2C(=O)N[C@@H](Cc2ccccc2)C(=O)N[C@H](C(=O)OC(C)(C)C)C(C)C)c1` (some centres undefined): 6 µM and 3 µM.
Consider `COc1cccc(C(=O)CN2CCCCC2C(=O)N[C@@H](Cc2ccccc2)C(=O)N[C@H](/C=C/I)C(C)C)c1` (some centres undefined), for which the Activity turned out to be 30 µM in the experiment on KB and 2 µM in experiment [1].
The matching figures for `COc1cccc(C(=O)CN2CCCCC2C(=O)N[C@@H](Cc2ccccc2)C(=O)N[C@H](/C=C/COC(C)=O)C(C)C)c1` (some centres undefined): greater than 50 µM and 2 µM.
The matching figures for `C=CCOC/C=C/[C@@H](NC(=O)[C@H](Cc1ccccc1)NC(=O)C1CCCCN1CC(=O)c1cccc(OC)c1)C(C)C` (some centres undefined): 6 µM and 3 µM.
With `COC(=O)C(=O)N1CCCC1C(=O)N[C@@H](Cc1ccccc1)C(=O)OC(C)(C)C` (some centres undefined), the Activity (in the experiment on KB; in experiment [1]) was greater than 50 µM each time.
The matching figures for `COc1cccc(C(=O)CN2CCCCC2C(=O)N[C@@H](Cc2ccccc2)C(=O)N[C@H](/C=C/COC(=O)C(F)(F)F)C(C)C)c1` (some centres undefined): 49 µM and 1 µM.
The matching figures for `CC(C)[C@H](NC(=O)[C@H](Cc1ccccc1)NC(=O)C1CCCCN1CC(=O)c1ccc2ccccc2c1)C(=O)OC(C)(C)C` (some centres undefined): 5 µM and 1 µM.
The matching figures for `COc1cccc(C(=O)CN2CCCCC2C(=O)N[C@@H](Cc2ccccc2)C(=O)OC(C)(C)C)c1` (some centres undefined): greater than 50 µM and 3 µM.
